Data on 22 compounds can be found in ChEMBL document CHEMBL4680126, “Indazolyl-substituted piperidin-4-yl-aminopyrimidines as HIV-1 NNRTIs: Design, synthesis and biological activities” (Eur J Med Chem, 2020).

By EC50 is commonly meant the concentration at which the effect is half-maximal. The term CC50 denotes the concentration that lowers cell viability or growth by half.

For data set [1], the system named is Human immunodeficiency virus 1. Briefly: Antiviral activity against wild type HIV-1 strain 3B infected in human MT4 cells assessed as reduction in virus-induced cytopathogenicity by MTT assay. The class given is functional, organism-based. The settings on record: Human immunodeficiency virus 1, 3B. (Protection from cytopathic effect is a common read-out in antiviral testing.)

The test system of data set [2] is Human immunodeficiency virus 1. Briefly: Antiviral activity against HIV-1 K103N mutant strain infected in human MT4 cells assessed as reduction in virus-induced cytopathogenicity by MTT assay. The class given is functional, organism-based. The settings on record: Human immunodeficiency virus 1, MT4.
Data set [3] concerns Human immunodeficiency virus 1. Briefly: Antiviral activity against HIV-1 Y181C mutant strain infected in human MT4 cells assessed as reduction in virus-induced cytopathogenicity by MTT assay. The class given is functional, organism-based. The settings on record: Human immunodeficiency virus 1, MT4.
The subject of data set [4] is Human immunodeficiency virus 1. Briefly: Antiviral activity against HIV-1 E138K mutant strain infected in human MT4 cells assessed as reduction in virus-induced cytopathogenicity by MTT assay. It counts as functional, organism-based. To be noted: Human immunodeficiency virus 1, MT4.
In data set [5] the test system is Human immunodeficiency virus 1. The data set can be described thus: Antiviral activity against HIV-1 RES056 mutant strain infected in human MT4 cells assessed as reduction in virus-induced cytopathogenicity by MTT assay. It counts as functional, organism-based. The settings on record: Human immunodeficiency virus 1, MT4.
Data set [6] can be described thus: Cytotoxicity against human MT4 cells assessed as inhibition of cell viability by measuring reduction in absorbance at OD540 by MTT assay. The class given is cell-based. (Formazan colour is commonly taken as a measure of viable cells.)
A short description of data set [7]: Selectivity index, ratio of CC50 for cytotoxicity against human MT4 cells reduction in cell viability by MTT assay to EC50 for antiviral activity against wild type HIV-1 strain IIIB infected in human MT4 cells assessed as reduction in virus-induced cytopathogenicity by MTT assay. It counts as toxicity, cell-based. The settings on record: read-out: Selectivity Index.

In data set [8] the test system is Human immunodeficiency virus 2. Briefly: Antiviral activity against HIV-2 ROD strain infected in human MT4 cells assessed as reduction in virus-induced cytopathogenicity by MTT assay. To be noted: Human immunodeficiency virus 2, ISOLATE ROD.

Turning to `N#Cc1ccc(Oc2ccnc(NC3CCN(Cc4n[nH]c5ccccc45)CC3)n2)cc1`, the EC50 in data set [1] is 0.078 µM; in data set [2] it was 2.6 µM; in data set [3], 3.13 µM; in data set [4], 1.4 µM; in data set [5], greater than 31 µM; in data set [8], greater than 31 µM. Besides, in data set [6], the CC50 worked out at 31 µM. Moreover, the selectivity ratio in data set [7] is 397.

On to `N#Cc1cccc(Oc2ccnc(NC3CCN(Cc4n[nH]c5ccccc45)CC3)n2)c1`, for which the EC50 in data set [1] was 1.5 µM; in data set [2] it was greater than 32 µM; in data set [3] it was greater than 32 µM; in data set [4] it was greater than 32 µM; in data set [5], greater than 32 µM; in data set [8], greater than 32 µM. The CC50 in data set [6] was 32 µM. For the same compound, in data set [7], the selectivity ratio was determined as 21.

As to `Brc1ccccc1Oc1ccnc(NC2CCN(Cc3n[nH]c4ccccc34)CC2)n1`, the EC50 was 0.031 µM in data set [1]; 1.9 µM in data set [2]; 1 µM in data set [3]; 0.48 µM in data set [4]; greater than 5.3 µM in data set [5]; greater than 5.3 µM in data set [8]. The 50% cytotoxic concentration (CC50) in data set [6] is 5.3 µM. The selectivity ratio in data set [7] came out at 171.

In the case of `Cc1cccc(Oc2ccnc(NC3CCN(Cc4n[nH]c5ccccc45)CC3)n2)c1`, the EC50 was 0.39 µM in data set [1]; 9.6 µM in data set [2]; greater than 11 µM in data set [3]; 4 µM in data set [4]; greater than 32 µM in data set [5]; greater than 32 µM in data set [8]. In addition, the CC50 in data set [6] was found to be 32 µM. Besides, in data set [7], the selectivity ratio is 82.

Take `Cc1ccnc2c1NC(=O)c1cccnc1N2C1CC1` [NEVIRAPINE]: the EC50 came to 0.0032 µM in data set [1]; 0.0032 µM in data set [2]; 0.014 µM in data set [3]; 0.0067 µM in data set [4]; 0.034 µM in data set [5]. In addition, the CC50 in data set [6] was greater than 4.6 µM. Also, the selectivity ratio in data set [7] is greater than 1440.

As to `Cc1ccc(Oc2ccnc(NC3CCN(Cc4n[nH]c5ccccc45)CC3)n2)cc1`, the EC50 in data set [1] is 0.14 µM; in data set [2], 3.8 µM; in data set [3] it was 4.3 µM; in data set [4], 0.77 µM; in data set [5] it was greater than 32 µM; in data set [8], greater than 32 µM. Also, in data set [6], the 50% cytotoxic concentration (CC50) came out at 32 µM. Besides, the selectivity ratio in data set [7] came out at 229.

As to `FC(F)(F)c1cccc(Oc2ccnc(NC3CCN(Cc4n[nH]c5ccccc45)CC3)n2)c1`, the EC50 in data set [1] was 0.55 µM; in data set [2] it was 8.9 µM; in data set [3] it was 9.7 µM; in data set [4], 7 µM; in data set [5] it was greater than 22 µM; in data set [8], greater than 22 µM. Also, the CC50 in data set [6] is 22 µM. In data set [7], the selectivity ratio is 40.

`Brc1ccc(Oc2ccnc(NC3CCN(Cc4n[nH]c5ccccc45)CC3)n2)cc1`: the EC50 in data set [1] was 0.21 µM; in data set [2] it was 5.7 µM; in data set [3], 7.5 µM; in data set [4] it was 2 µM; in data set [5], greater than 24 µM; in data set [8], greater than 24 µM. Moreover, in data set [6], the half-maximal cytotoxic concentration (CC50) turned out to be 24 µM. In addition, in data set [7], the selectivity ratio was 114.

On to `FC(F)(F)c1ccc(Oc2ccnc(NC3CCN(Cc4n[nH]c5ccccc45)CC3)n2)cc1`, for which the EC50 in data set [1] was 0.47 µM; in data set [2], 10 µM; in data set [3], greater than 29 µM; in data set [4] it was 4.8 µM; in data set [5], greater than 29 µM; in data set [8] it was greater than 29 µM. For the same compound, the CC50 in data set [6] turned out to be 29 µM. Moreover, in data set [7], the selectivity ratio amounted to 62.

As for `Brc1cccc(Oc2ccnc(NC3CCN(Cc4n[nH]c5ccccc45)CC3)n2)c1`, the EC50 in data set [1] is 0.25 µM; in data set [2], 4.9 µM; in data set [3] it was 6.1 µM; in data set [4], 3.5 µM; in data set [5], greater than 22 µM; in data set [8], greater than 22 µM. Moreover, the CC50 in data set [6] was 22 µM. The selectivity ratio in data set [7] worked out at 88.

For `Clc1ccc(Oc2ccnc(NC3CCN(Cc4n[nH]c5ccccc45)CC3)n2)cc1`, the concentration giving a half-maximal response (EC50) in data set [1] was 0.23 µM; in data set [2] it was 4 µM; in data set [3] it was 5.6 µM; in data set [4], 2.3 µM; in data set [5], greater than 30 µM; in data set [8], greater than 30 µM. Also, the CC50 in data set [6] came out at 30 µM. Further, in data set [7], the selectivity ratio amounted to 130.

On to `FC(F)(F)c1ccccc1Oc1ccnc(NC2CCN(Cc3n[nH]c4ccccc34)CC2)n1`, for which the half-maximal effective concentration (EC50) in data set [1] is 0.3 µM; in data set [2], 8.3 µM; in data set [3], 6.8 µM; in data set [4], 4.4 µM; in data set [5] it was greater than 15 µM; in data set [8], greater than 15 µM. The CC50 in data set [6] was determined as 15 µM. For the same compound, in data set [7], the selectivity ratio was 50.

As to `Clc1ccccc1Oc1ccnc(NC2CCN(Cc3n[nH]c4ccccc34)CC2)n1`, the EC50 in data set [1] is 0.037 µM; in data set [2], greater than 5.4 µM; in data set [3], 1.6 µM; in data set [4], 0.8 µM; in data set [5], greater than 5.4 µM; in data set [8] it was greater than 5.4 µM. The CC50 in data set [6] worked out at 5.4 µM. Also, the selectivity ratio in data set [7] was 146.

With `O=C1Nc2ccc(Cl)cc2[C@@](C#CC2CC2)(C(F)(F)F)O1` [EFAVIRENZ], the EC50 is 0.0026 µM in data set [1], 0.076 µM in data set [2], 0.0044 µM in data set [4] and 0.24 µM in data set [5]. In addition, the CC50 in data set [6] is greater than 6.3 µM. The selectivity ratio in data set [7] was greater than 2420.

For the compound `Cc1cc(Oc2ccnc(NC3CCN(Cc4n[nH]c5ccccc45)CC3)n2)cc(C)c1Cl`, the EC50 in data set [1] was 0.37 µM; in data set [2], 8.2 µM; in data set [3], 8.7 µM; in data set [4], 4.7 µM; in data set [5], greater than 15 µM; in data set [8] it was greater than 15 µM. Moreover, in data set [6], the CC50 is 15 µM. Also, in data set [7], the selectivity ratio amounted to 41.

Regarding `Cc1cn([C@H]2C[C@H](N=[N+]=[N-])[C@@H](CO)O2)c(=O)[nH]c1=O` [ZIDOVUDINE], the EC50 in data set [4] came to 0.16 µM. Besides, the CC50 in data set [6] is greater than 15 µM. Besides, the selectivity ratio in data set [7] is greater than 100.

For the compound `Cc1cc(C#N)cc(C)c1Oc1nc(Nc2ccc(C#N)cc2)nc(N)c1Br` [ETRAVIRINE], the CC50 in data set [6] was greater than 87 µM. In data set [7], the selectivity ratio is greater than 28.

Turning to `Nc1ccn([C@@H]2CS[C@H](CO)O2)c(=O)n1` [LAMIVUDINE], the EC50 was 0.018 µM in data set [1]; 0.019 µM in data set [2]; 0.012 µM in data set [3]; 0.019 µM in data set [4]; 0.028 µM in data set [5]; 0.021 µM in data set [8]. Moreover, the CC50 in data set [6] is greater than 7.5 µM. For the same compound, in data set [7], the selectivity ratio was greater than 417.

For the compound `Clc1cccc(Oc2ccnc(NC3CCN(Cc4n[nH]c5ccccc45)CC3)n2)c1`, the EC50 in data set [1] is 0.28 µM; in data set [2] it was 9.8 µM; in data set [3] it was 9 µM; in data set [4], 4.7 µM; in data set [5] it was greater than 26 µM; in data set [8], greater than 26 µM. For the same compound, the CC50 in data set [6] is 26 µM. Moreover, the selectivity ratio in data set [7] is 93.

`Cc1cc(C#N)cc(C)c1Oc1ccnc(NC2CCN(Cc3n[nH]c4ccccc34)CC2)n1`: the EC50 was 0.0064 µM in data set [1]; 0.077 µM in data set [2]; 0.11 µM in data set [3]; 0.057 µM in data set [4]; 8.7 µM in data set [5]; greater than 16 µM in data set [8]. For the same compound, the CC50 in data set [6] turned out to be 16 µM. Also, in data set [7], the selectivity ratio stood at 2500.

As to `N#Cc1cc(Cl)cc(Oc2ccnc(NC3CCN(Cc4n[nH]c5ccccc45)CC3)n2)c1`, the EC50 in data set [1] is 2.3 µM; in data set [2], greater than 27 µM; in data set [3] it was greater than 27 µM; in data set [4], greater than 27 µM; in data set [5], greater than 27 µM; in data set [8], greater than 27 µM. Further, the CC50 in data set [6] was found to be 27 µM. Further, in data set [7], the selectivity ratio came out at 12.

Consider `Cc1cccc(C)c1Oc1ccnc(NC2CCN(Cc3n[nH]c4ccccc34)CC2)n1`, for which the EC50 in data set [1] is 0.0086 µM; in data set [2], 0.22 µM; in data set [3], 0.4 µM; in data set [4], 0.084 µM; in data set [5] it was greater than 18 µM; in data set [8], greater than 18 µM. Besides, the CC50 in data set [6] stood at 18 µM. Moreover, the selectivity ratio in data set [7] was 2090.
